Test results from paper PMC5036131, “Fragment-based discovery of a new family of non-peptidic small-molecule cyclophilin inhibitors with potent antiviral activities” (Nature Communications, 2016).

Experiments:
[1] = Cell culture medium binding, equilibrium dialysis; format: in vitro ADME; settings: 2 μM, 37 °C, 3 h dialysis
Protocol: The extent of binding to pooled human plasma and to cell culture medium containing 10% fetal bovine serum was determined by equilibrium dialysis against isotonic phosphate buffer. Equilibrium dialysis was conducted at 37 °C with initial concentrations of compounds of 2 μM in the non-buffer matrix. A 3 h dialysis time was used for equilibration. Following dialysis, plasma samples were drained into pre-weighed polypropylene tubes containing buffer and buffer samples were drained into pre-weighed tubes containing blank plasma. Post-dialysis plasma and buffer weights were measured and recorded for concentration and recovery calculations. After precipitation and centrifugation, LC-MS/MS assays were used for the analysis of each of the protein/phosphate buffer-mixed matrices. Relative binding to human plasma and cell culture medium was determined in a similar manner, except that the two matrices were dialysed against each other directly and the compound was spiked into both matrices. After equilibration, the plasma sample was diluted with blank cell culture medium and the cell culture medium diluted with blank plasma.

HCoV-229E = assay: Anti-human coronavirus 229E activity in MRC5 cells; format: cell-based; settings: 72 h, viral cytopathic effect
MRC5 cells = assay: Cellular toxicity in MRC5 cells; settings: read-out: MRC5 cells CC50; MRC5 cells
Caco-2 cells = assay: Caco-2 cell permeability; format: in vitro ADME; settings: Caco-2 monolayers, 10 μM
Protocol: Permeability and efflux potential were determined using confluent (≥21 day) monolayers of Caco-2 cells grown on transwell filters. Compounds were added to donor wells at a target concentration of 10 μM and rates of appearance in receiver wells (containing 1% BSA to maintain sink conditions) were determined by liquid chromatography coupled to tandem mass spectrometry (LC-MS/MS).

CYP2D6 = CYP2D6 (Homo sapiens, UniProt P10635); assay: Metabolism by recombinant human cytochrome P450, CYP2D6; format: in vitro ADME; settings: recombinant enzyme
Protocol: […] of compound was incubated with individual bacterially expressed recombinant human cytochromes P450 co-expressed with human NADPH cytochrome P450 reductase. […] Enzyme-selective positive control substrates were tested in parallel.

HIV-IIIb = assay: Anti-HIV activity in MT4 cells; format: cell-based, human immunodeficiency virus; settings: 5 days
CYP2C8 = molecular target: T1, CYP2C8 (Homo sapiens, UniProt P10632); assay: Cytochrome P450 enzyme inhibition assay, CYP2C8; format: in vitro ADME; parameters: incubated with human hepatic microsomal fractions and NADPH; from tissue; host or cells: human hepatic microsomal fractions; settings: human hepatic microsomal fractions, up to 25 μM
T1 sequence (P10632 1-490): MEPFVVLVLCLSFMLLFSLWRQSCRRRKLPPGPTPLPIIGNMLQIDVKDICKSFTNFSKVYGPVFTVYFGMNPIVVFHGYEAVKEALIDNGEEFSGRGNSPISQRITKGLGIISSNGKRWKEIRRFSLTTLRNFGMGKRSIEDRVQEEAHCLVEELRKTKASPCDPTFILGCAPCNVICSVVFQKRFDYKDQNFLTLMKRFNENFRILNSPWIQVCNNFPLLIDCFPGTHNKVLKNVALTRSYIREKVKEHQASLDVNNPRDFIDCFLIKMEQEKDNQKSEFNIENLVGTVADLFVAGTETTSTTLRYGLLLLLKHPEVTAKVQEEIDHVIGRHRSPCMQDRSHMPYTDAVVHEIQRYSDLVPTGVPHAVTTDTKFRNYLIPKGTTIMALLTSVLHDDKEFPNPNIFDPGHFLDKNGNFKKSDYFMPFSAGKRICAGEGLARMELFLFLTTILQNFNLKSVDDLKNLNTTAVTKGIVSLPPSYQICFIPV
Protocol: Up to 25 μM of compounds 29 and 30 was incubated with human hepatic microsomal fractions and NADPH in the presence of individual probe substrates. All assays were designed so that conditions were linear with respect to time and protein concentration. Substrates were present at concentrations equal to or lower than their respective Km values. Enzyme selective products were determined by fluorometry (ethoxyresorufin O-deethylase) or by specific LC-MS/MS assays. Relative enzyme activities were determined by comparison with those assayed with DMSO vehicle instead of inhibitor. IC50 values were calculated by nonlinear curve fitting using a sigmoidal model. Positive control inhibitors for each enzyme were tested in parallel.

Chain of CYP2D6 (P10635 whole entry): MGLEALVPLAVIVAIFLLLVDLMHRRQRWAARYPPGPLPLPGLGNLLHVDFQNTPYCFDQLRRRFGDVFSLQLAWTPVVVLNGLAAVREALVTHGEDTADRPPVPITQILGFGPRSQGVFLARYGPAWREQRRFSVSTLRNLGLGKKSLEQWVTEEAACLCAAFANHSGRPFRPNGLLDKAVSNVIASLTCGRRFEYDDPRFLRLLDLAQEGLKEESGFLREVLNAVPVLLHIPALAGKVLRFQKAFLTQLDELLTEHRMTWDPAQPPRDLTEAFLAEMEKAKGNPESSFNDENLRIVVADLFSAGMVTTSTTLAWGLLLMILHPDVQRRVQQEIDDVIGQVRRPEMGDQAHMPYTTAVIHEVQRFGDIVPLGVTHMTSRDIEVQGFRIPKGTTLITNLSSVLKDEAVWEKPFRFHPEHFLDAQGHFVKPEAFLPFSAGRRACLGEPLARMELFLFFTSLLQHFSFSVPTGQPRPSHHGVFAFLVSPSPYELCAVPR

CSCCC(NC(=O)NCc1ccc(N)cc1)C(=O)N1CCCC1c1ccccc1SC.O=C(O)C(F)(F)F (stereo not shown) [Compound 30]
Cell culture medium (CCM) binding Unbound [1]: 23.2%
EC50 (HCoV-229E): 7.2 ± 1.8 µM
CC50 (MRC5 cells): > 100 µM
Apparent permeability Forward (Caco-2 cells): 19.5 ×10⁻⁶ cm/s
Apparent permeability Forward (Caco-2 cells; listed as compound 30): high
Apparent permeability Reverse (Caco-2 cells; reverse): 39.7 ×10⁻⁶ cm/s
Rate of metabolism by human cytochrome P450 CYD2D6 (CYP2D6): 1.24 pmol/pmol P450/min
EC50 (HIV-IIIb): 15 ± 1.2 µM
IC50 (CYP2C8): 9.4 µM
Inhibition of cytochrome P450 activity, IC50 CYP2C8 (CYP2C8): moderate inhibitors
